Measured values reported in the supplement of paper PMC7108870.

What was measured:
[1] = system: HEK293sieSTAT3(Y640F); assay: drug sensitivity score (DSS), viability CellTiter-Glo (DSS (dimensionless)); higher = more growth inhibition; extreme values may be limits of the assay; settings: 72 h; STAT3 variant: Y640F (constitutively active)
In short: (§1)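 For 72 hours at 37°C and 5% CO2, HEK293 cells overexpressing wild-type or mutant STAT3 and carrying a STAT3-dependent luciferase reporter were cultured on compounds at 5 concentrations in 10-fold dilutions. CellTox Green and then CellTiter-Glo signals were read, normalised to negative and positive control wells, and converted in Breeze into a drug sensitivity score based on dose-response curve area. Values are from one representative of two experiments.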

[2] = system: HEK293sieSTAT3(wt); assay: as above; settings: 72 h; STAT3 variant: wild type
In short: as §1

[3] = system: HEK293sieSTAT3(Y640F); assay: drug sensitivity score (DSS), cytotoxicity CellTox Green (DSS (dimensionless)); higher = more cytotoxic; extreme values may be limits of the assay; settings: 72 h; STAT3 variant: Y640F (constitutively active)
In short: as §1

[4] = system: HEK293sieSTAT3(wt); assay: as above; settings: 72 h; STAT3 variant: wild type
In short: as §1

SMILES | drug sensitivity score [1] | drug sensitivity score [2] | drug sensitivity score [3] | drug sensitivity score [4]
CS(=O)(=O)N1CCN(Cc2cc3nc(-c4cccc5[nH]ncc45)nc(N4CCOCC4)c3s2)CC1 [Pictilisib] (top concentration tested 10000 nM) | 12.7 | 15.7 | 1.36 | 7.57
COc1ccc(Cl)c(Nc2nc3ccccc3nc2NS(=O)(=O)c2cccc(NC(=O)C(C)(C)N)c2)c1 [Pilaralisib] (top concentration tested 2500 nM) | 6.22 | 3.92 | 0 | 0
CC[C@@H]1C(=O)OC[C@@H]1Cc1cncn1C [Pilocarpine] (top concentration tested 40000 nM) | 0.59 | 1.32 | 0 | 0
O=C(NC[C@H](O)CO)c1ccncc1Nc1ccc(I)cc1F [Pimasertib] (top concentration tested 10000 nM) | 0.57 | 0 | 0 | 0
CC(C)N(C[C@H]1O[C@@H](n2cnc3c(N)ncnc32)[C@H](O)[C@@H]1O)[C@H]1C[C@@H](CCc2nc3cc(C(C)(C)C)ccc3[nH]2)C1 [Pinometostat] (top concentration tested 1000 nM) | 0.69 | 0 | 0.46 | 0
O=C(CCBr)N1CCN(C(=O)CCBr)CC1 [Pipobroman] (top concentration tested 10000 nM) | 6.86 | 1.43 | 0 | 0
NCCNc1ccc(NCCN)c2c1C(=O)c1ccncc1C2=O [Pixantrone] (top concentration tested 10000 nM) | 1.82 | 0 | 0 | 0
c1cc(CN2CCCNCCNCCCNCC2)ccc1CN1CCCNCCNCCCNCC1 [Plerixafor] (top concentration tested 10000 nM) | 0 | 0 | 0 | 0.25
CO[C@H](C(=O)[C@@H](O)[C@@H](C)O)[C@@H]1Cc2cc3cc(O[C@H]4C[C@@H](O[C@@H]5C[C@@H](O)[C@H](O)[C@@H](C)O5)[C@H](O)[C@@H](C)O4)c(C)c(O)c3c(O)c2C(=O)[C@H]1O[C@H]1C[C@@H](O[C@@H]2C[C@@H](O)[C@@H](O[C@@H]3C[C@](C)(O)[C@H](O)[C@@H](C)O3)[C@@H](C)O2)[C@H](O)[C@@H](C)O1 [Plicamycin] (top concentration tested 10000 nM) | 17.8 | 18.7 | 6.46 | 7.29
Nc1cccc2c1C(=O)N(C1CCC(=O)NC1=O)C2=O (centres undefined) [Pomalidomide] (top concentration tested 10000 nM) | 0 | 0 | 0 | 0
C=CC(=O)N1CCC(Oc2cc3c(Nc4ccc(Cl)c(Cl)c4F)ncnc3cc2OC)CC1 [Poziotinib] (top concentration tested 1000 nM) | 1.53 | 0 | 0 | 0
CCCCc1nc2cc(/C=C/C(=O)NO)ccc2n1CCN(CC)CC [Pracinostat] (top concentration tested 10000 nM) | 20.7 | 22 | 9.85 | 14.5
CC[C@H](C)C(=O)O[C@H]1C[C@H](O)C=C2C=C[C@H](C)[C@H](CC[C@@H](O)C[C@@H](O)CC(=O)O)[C@H]21 [Pravastatin] (top concentration tested 10000 nM) | 0 | 2.37 | 0.36 | 0
C[C@]12C=CC(=O)C=C1CC[C@@H]1[C@@H]2[C@@H](O)C[C@@]2(C)[C@H]1CC[C@]2(O)C(=O)CO [Prednisolone] (top concentration tested 10000 nM) | 0 | 0 | 0 | 0
C[C@]12C=CC(=O)C=C1CC[C@@H]1[C@@H]2C(=O)C[C@@]2(C)[C@H]1CC[C@]2(O)C(=O)CO [Prednisone] (top concentration tested 10000 nM) | 0.65 | 3.96 | 0.59 | 0
COc1cccc(OCCCN)c1-c1cc(Nc2cnc(C#N)cn2)n[nH]1 [Prexasertib] (top concentration tested 10000 nM) | 42.1 | 37 | 15.4 | 12.4
CNNCc1ccc(C(=O)NC(C)C)cc1 [Procarbazine] (top concentration tested 10000 nM) | 0 | 0 | 0 | 0
Cc1cc(-c2ncc(-c3cccnc3)cc2/C=C/c2ccccc2)cnc1-c1cccnc1 [Pyridoclax] (top concentration tested 25000 nM) | 12.2 | 10.1 | 1.38 | 5.06
Cn1cc(CNCC2CCN(c3ncc(C(=O)NO)cn3)CC2)c2ccccc21 [Quisinostat] (top concentration tested 1000 nM) | 16.3 | 17.9 | 6.14 | 7.75
CC(C)(C)c1cc(NC(=O)Nc2ccc(-c3cn4c(n3)sc3cc(OCCN5CCOCC5)ccc34)cc2)no1 [Quizartinib] (top concentration tested 1000 nM) | 2.15 | 2.01 | 0 | 1.05
Cn1c(Nc2ccc(C(F)(F)F)cc2)nc2cc(Oc3ccnc(-c4ncc(C(F)(F)F)[nH]4)c3)ccc21 [RAF265] (top concentration tested 1000 nM) | 0 | 0.25 | 0 | 0.14
